What was measured:
apple cuticles = assay: Percentage penetration of benzyladenine through apple cuticles with and without TBPEM-6; format: in vitro ADME; settings: 0.2 g/l benzyladenine in acetone/mains water, no additive
Description: The method described in the literature (Baur et al., 1997, Pesticide Science 51, 131-152) can be used for determining these properties.
The penetration of the growth promoter benzyladenine (benzylamonopurin) through leaf cuticles was measured at an active ingredient concentration of 0.2 g/l benzyladenine in acetone/mains water, with and without TBPEM-6, at different practically relevant concentrations, 5 hours and 24 hours after application.

[1] = Dynamic surface tension by the bubble pressure method (wetting agent effect); format: physicochemical; settings: for Dynamic surface tension: 22° C.
Description: The dynamic surface tension was determined by the bubble pressure method (BP2100 tensiometer, Krúss) on a timescale relevant for spray application. The dynamic surface tension was measured for solutions of TBPEM-6 and TBPEM-8 in mains water at room temperature (22° C.) and at the typical spray mixture concentrations of 0.3, 1, and 3 g/l.

Row | Compound | Percentage penetration of benzyladenine (apple cuticles; 5 h) [%] | Percentage penetration of benzyladenine (apple cuticles; 24 h) [%] | Dynamic surface tension ([1]; 0.3 g/L in mains water, 20 ms) [mN/m] | Dynamic surface tension ([1]; 0.3 g/L in mains water, 100 ms) [mN/m] | Dynamic surface tension ([1]; 0.3 g/L in mains water, 200 ms) [mN/m] | Dynamic surface tension ([1]; 1 g/L in mains water, 20 ms) [mN/m] | Dynamic surface tension ([1]; 1 g/L in mains water, 100 ms) [mN/m] | Dynamic surface tension ([1]; 1 g/L in mains water, 200 ms) [mN/m] | Dynamic surface tension ([1]; 3 g/L in mains water, 20 ms) [mN/m] | Dynamic surface tension ([1]; 3 g/L in mains water, 100 ms) [mN/m] | Dynamic surface tension ([1]; 3 g/L in mains water, 200 ms) [mN/m] | Suitability as wetting agent from dynamic surface tension ([1]; spray application timescale)
1 | c1ccc(CNc2ncnc3nc[nH]c23)cc1 [Benzyladenine, benzyladenine] | 2.0 | 3.7 | – | – | – | – | – | – | – | – | – | –
2 | 2,4,6-tributylphenoxy-ethoxy(6) methyl ether [TBPEM-6] | – | – | 70.3 | 65.0 | 62.8 | 62.9 | 54.1 | 52.5 | 55.5 | 42.9 | 41.8 | excellent suitability as a rapid wetting agent
3 | tributylphenol ethoxylate(6) [Sapogenat T 060] | – | – | 69.9 | 64.6 | 61.4 | 67.3 | 58.6 | 53.2 | 63.4 | 51.8 | 46 | –

— patent US20160244390A1, “Etherified Tri-Butylphenol Alkoxylates, Process For Their Preparation And Their Use In Crop Protection Agents” (CLARIANT INTERNATIONAL LTD, priority 2013, published 2016)
